Measurements taken from patent US8685674B2, “Chondroitin synthase, method for producing the same and method for producing saccharide chain-extended chondroitin” (Glytech, Inc., priority 2001, dated 2014).
Each block holds one compound with its values, some of them ahead of it.

Tests used:
Type in all cases: biochemical
[1] = target: T1, soluble chondroitin synthase fused with a cleavable insulin signal sequence and a protein A (Homo sapiens, UniProt Q86X52, R588T); experiment: GalNAc transferase assay, UDP-[3H]GalNAc as donor; conditions: for ACTIVITY (receptor specificity): enzyme-bound beads, MES pH 6.5, 10 mM MnCl2, 37° C., one hour, average of two experiments
T1 construct: ID; NO: 2; made in house; host or cells: COS-1 cells (transient transfection; secreted fusion protein captured from the medium on IgG-Sepharose beads)
T1 sequence (Q86X52 47-802 R588T): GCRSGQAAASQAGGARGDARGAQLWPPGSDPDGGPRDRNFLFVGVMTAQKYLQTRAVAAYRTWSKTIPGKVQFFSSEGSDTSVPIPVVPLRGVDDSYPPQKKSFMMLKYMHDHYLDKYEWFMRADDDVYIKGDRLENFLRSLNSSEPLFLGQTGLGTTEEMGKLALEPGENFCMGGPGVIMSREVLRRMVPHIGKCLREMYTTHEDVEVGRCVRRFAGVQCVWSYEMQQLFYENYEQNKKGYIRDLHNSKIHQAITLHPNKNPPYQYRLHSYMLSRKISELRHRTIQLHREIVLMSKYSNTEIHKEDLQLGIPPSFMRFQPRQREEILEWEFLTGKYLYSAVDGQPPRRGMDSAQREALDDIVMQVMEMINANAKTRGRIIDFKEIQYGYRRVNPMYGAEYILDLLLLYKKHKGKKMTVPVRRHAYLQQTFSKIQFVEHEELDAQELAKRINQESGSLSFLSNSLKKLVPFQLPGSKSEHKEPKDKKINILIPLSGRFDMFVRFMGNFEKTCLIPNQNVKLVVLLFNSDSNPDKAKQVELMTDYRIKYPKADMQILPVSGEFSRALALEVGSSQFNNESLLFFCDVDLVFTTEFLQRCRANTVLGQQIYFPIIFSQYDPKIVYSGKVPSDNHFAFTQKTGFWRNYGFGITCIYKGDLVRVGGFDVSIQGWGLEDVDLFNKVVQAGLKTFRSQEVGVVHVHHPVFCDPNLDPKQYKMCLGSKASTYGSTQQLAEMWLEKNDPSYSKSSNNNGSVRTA
Description: (§1) By using FuGENE (Trademark) 6 (Roche Molecular Biochemicals Co., Tokyo), an expression plasmid (6.7 μg) was transfected into a COS-1 cell on a 100 mm plate, in accordance with a manual of the manufacture. On the second day from the transfection, 1 ml of an incubation liquid was collected and incubated together with 10 μL of IgG-Sepharose (Amersham Pharmacia Biotech) at 4° C. for one hour. Beads of the IgG-Sepharose was collected by centrifugation, and then washed with an assay buffer. After that, the beads were resuspended in an assay buffer of the same kind as the assay buffer. The beads were used for assaying GalNAc transferase, GlcUA transferase, and Gal transferase. That is, a fused protein occurred in the incubation liquid was absorbed by IgG-Sepharose so as to remove glycosyltransferases in the incubation liquid. Then, by using the enzyme bound beads as an enzyme source, glycosyltransferase activity of the fused protein that was bound to the beads was assayed with various receptor substrates and donor substrates.
As a receptor for GalNAc transferase, a polymer (167 μg) of chondroitin, α-thrombomodulin (1 nmol), or GlcUAβ1-3Galβ1-3Galβ1-4Xylβ1-0-Ser (1 nmol) was used. Moreover, as a receptor for GlcUA transferase, the polymer (167 μg) of chondroitin or Galβ1-3Galβ1-4Xylβ (1 nmol) was used. As a receptor of Gal transferase, sheep submandibular asialomucin (300 μg) or GlcNAcβ1-3Galβ1-4GlcNAcβ1-3Galβ1-4GlcNAc (1 nmol) was used. […]
(§2) Assay of GlcUA transferase I (GlcAT-I), which is necessary for synthesis of tetrasaccharide for the linkage region, was carried out with a mixture of, in 30 μL in total, 10 μL of the resuspended beads, 1 nmol Galβ1-3Galβ1-4Xyl, 14.3 μM UDP-[^14C]GlcUA (1.46×10^5 dpm), 50 mM MES buffer, pH6.5, and 2 mM MnCl2 (FEBS lett. 459, 415-420 (1999)). […] The thus collected labeled products were quantified by liquid scintillation spectroscopy.

[2] = target: T1, soluble chondroitin synthase fused with a cleavable insulin signal sequence and a protein A; experiment: Gal transferase assay, UDP-[3H]Gal as donor; conditions: enzyme-bound beads, MES pH 6.5, 10 mM MnCl2, 37° C., one hour, average of two experiments
Description: as §1, with “Then, by using the enzyme bound beads as an enzyme source, glycosyltransferase activity of the fused protein that was bound to the beads was assayed with various receptor substrates and donor substrates.” left out
as §2

[3] = target: T1, soluble chondroitin synthase fused with a cleavable insulin signal sequence and a protein A; experiment: GlcUA transferase II (GlcAT-II) assay, chondroitin polymer as receptor, UDP-[14C]GlcUA as donor
Description: as §1, with “Then, by using the enzyme bound beads as an enzyme source, glycosyltransferase activity of the fused protein that was bound to the beads was assayed with various receptor substrates and donor substrates.” left out
as §2

[4] = target: T1, soluble chondroitin synthase fused with a cleavable insulin signal sequence and a protein A; experiment: GlcUA transferase I (GlcAT-I) assay, UDP-[14C]GlcUA as donor; conditions: enzyme-bound beads, MES pH 6.5, 2 mM MnCl2, 37° C., one hour, average of two experiments
Description: as §1, with “Then, by using the enzyme bound beads as an enzyme source, glycosyltransferase activity of the fused protein that was bound to the beads was assayed with various receptor substrates and donor substrates.” left out
as §2

Compound: N[C@@H](CO[C@@H]1OC[C@@H](O[C@@H]2O[C@H](CO)[C@H](O)[C@H](O[C@@H]3O[C@H](CO)[C@H](O)[C@H](O[C@@H]4O[C@H](C(=O)O)[C@@H](O)[C@H](O)[C@H]4O)[C@H]3O)[C@H]2O)[C@H](O)[C@H]1O)C(=O)O [GlcUAβ1-3Galβ1-3Galβ1-4Xylβ-O-Ser, GlcUAβ1-3Galβ1-3Galβ1-4Xylβ1-O-Ser]
- ACTIVITY (receptor specificity) [1]: ND (ND: Not Detected (<0.1 pmol/ml medium/time))

Compound: GlcNAcβ1-3Galβ1-4GlcNAcβ1-3Galβ1-4GlcNAc
- ACTIVITY (receptor specificity) [2]: ND (ND: Not Detected (<0.1 pmol/ml medium/time))

- glycosyltransferase activity detected or not (in words) [3]: Activities were detected
- ACTIVITY (receptor specificity) ([3]; enzyme-bound IgG-Sepharose beads, pH 5.6, 10 mM MnCl2, 37° C., one hour, average of two experiments): 5.2 pmol/ml medium/time
- glycosyltransferase activity detected or not (in words) [1]: Activities were detected
- ACTIVITY (receptor specificity) [1]: 1.4 pmol/ml medium/time
Compound: Chondroitin

Compound: OC[C@H]1O[C@@H](O[C@H]2[C@@H](O)[C@@H](CO)O[C@@H](O[C@@H]3COC(O)[C@H](O)[C@H]3O)[C@@H]2O)[C@H](O)[C@@H](O)[C@H]1O (stereo partly shown) [Galβ1-3Galβ1-4Xyl]
- ACTIVITY (receptor specificity) [4]: ND (ND: Not Detected (<0.1 pmol/ml medium/time))
